Experimental data: patent US20260308186A1, “STAT DEGRADERS AND USES THEREOF” (Recludix Pharma, Inc., priority 2023, published 2026)
Like-named read-outs stand apart in the source and are kept apart here.

What was measured:
[1] = molecular target: T1, pSTAT3 (Homo sapiens, UniProt P40763); test: MSD-pSTAT-PBMC Assay, pSTAT3 (IL-6 stimulated PBMC); assay type: cell-based; conditions: read-out: pSTAT3 IC50, compound 3 hrs, then 10 ng/mL IL-6 for 10 min, pY705-STAT3
T1 construct: pY705-STAT3 MSD read-out
T1 sequence (P40763 whole entry): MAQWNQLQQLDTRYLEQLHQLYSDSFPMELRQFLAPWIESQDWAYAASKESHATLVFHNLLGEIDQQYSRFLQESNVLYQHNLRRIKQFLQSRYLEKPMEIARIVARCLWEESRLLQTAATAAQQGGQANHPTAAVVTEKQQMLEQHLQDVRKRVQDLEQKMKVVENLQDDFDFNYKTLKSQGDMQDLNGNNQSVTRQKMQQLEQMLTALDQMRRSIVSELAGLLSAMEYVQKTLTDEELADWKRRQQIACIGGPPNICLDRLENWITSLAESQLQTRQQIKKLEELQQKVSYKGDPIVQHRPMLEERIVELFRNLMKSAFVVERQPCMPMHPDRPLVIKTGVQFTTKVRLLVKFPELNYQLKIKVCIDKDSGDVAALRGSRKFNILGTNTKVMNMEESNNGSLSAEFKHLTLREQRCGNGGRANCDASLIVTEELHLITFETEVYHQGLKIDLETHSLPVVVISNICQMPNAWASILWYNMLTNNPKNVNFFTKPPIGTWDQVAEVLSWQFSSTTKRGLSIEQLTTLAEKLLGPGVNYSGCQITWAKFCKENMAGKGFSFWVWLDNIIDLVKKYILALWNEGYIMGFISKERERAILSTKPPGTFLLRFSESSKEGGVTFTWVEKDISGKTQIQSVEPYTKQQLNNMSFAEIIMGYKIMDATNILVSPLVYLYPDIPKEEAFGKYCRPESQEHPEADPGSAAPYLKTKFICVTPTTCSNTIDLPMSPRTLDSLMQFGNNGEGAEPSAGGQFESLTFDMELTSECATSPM
Text: Cryopreserved Peripheral Blood Mononuclear Cells (PBMC) are from AllCells. Recombinant Human IL-4 and IL-6 are from Peprotech. Mouse monoclonal anti-STAT3 antibody, rabbit monoclonal anti-pY705-STAT3 antibody, rabbit monoclonal Anti-pY641-STAT6 antibody, and lysis buffer are from Cell Signaling Technology (CST). Mouse monoclonal anti-STAT6 antibody is from BioLegend. Assay plates, blocker, and anti-rabbit secondary antibody are from Meso Scale Discovery (MSD).
Cryopreserved PBMCs were thawed out and allowed to recover overnight in IMDM+10% heat-inactivated FBS prior to plating 50,000 (STAT3) or 25,000 (STAT6) cells per well in 96-well U-bottom tissue culture plates. Cells were treated with compound for 3 hrs. then stimulated with 10 ng/mL IL-6 (STAT3) or 1 ng/mL IL-4 (STAT6) for 10 min. Cells were then spun down and washed with ice-cold PBS prior to lysing the cell pellet with 1× lysis buffer (CST) with 1×HALT protease and phosphatase inhibitor cocktail (Thermo). Lysates were transferred to and incubated overnight at 4° C. with shaking in QuickPlex 96-well high bind assay plates (MSD) pre-coated overnight with 30 μL per well of 0.6 μg/mL mouse monoclonal anti-STAT3 antibody (STAT3) or 2 μg/mL mouse monoclonal anti-STAT6 antibody (STAT6) in 1×PBS, and pre-blocked for 1 hour with 3% Blocker-A (MSD). Captured protein in the assay plates were then washed and probed with 25 μL per well of 0.25 μg/ml rabbit monoclonal anti-pY705-STAT3 antibody (STAT3) or 0.18 μg/ml rabbit monoclonal Anti-pY641-STAT6 antibody (STAT6) in 1% Blocker-A for 1 hour at room temperature with shaking, then washed and probed with 25 ul per well of 1 ug/ml Sulfo-TAG Labeled Goat Anti-Rabbit Antibody (MSD) in 1% Blocker-A for 1 hour at room temperature with shaking. Assay plates were then washed and 150 μL of 1× Read Buffer-T (MSD) was added to each well prior to reading on an SQ120 MSD Plate Reader. Assay signal from each sample was subtracted by the signal from unstimulated control wells and normalized to DMSO control wells. IC50 values were calculated using Graph Pad Prism Dose-Response Nonlinear Regression with variable slope. For both pSTAT3 and pSTAT6 A=≤100 nM; B=>100-1000 nM; C=>1000-3000 nM; and D=>3 μM.

[2] = molecular target: T2, pSTAT6 (Homo sapiens, UniProt P42226); test: MSD-pSTAT-PBMC Assay, pSTAT6 (IL-4 stimulated PBMC); assay type: cell-based
T2 construct: pY641-STAT6 MSD read-out
T2 sequence (P42226 1-847): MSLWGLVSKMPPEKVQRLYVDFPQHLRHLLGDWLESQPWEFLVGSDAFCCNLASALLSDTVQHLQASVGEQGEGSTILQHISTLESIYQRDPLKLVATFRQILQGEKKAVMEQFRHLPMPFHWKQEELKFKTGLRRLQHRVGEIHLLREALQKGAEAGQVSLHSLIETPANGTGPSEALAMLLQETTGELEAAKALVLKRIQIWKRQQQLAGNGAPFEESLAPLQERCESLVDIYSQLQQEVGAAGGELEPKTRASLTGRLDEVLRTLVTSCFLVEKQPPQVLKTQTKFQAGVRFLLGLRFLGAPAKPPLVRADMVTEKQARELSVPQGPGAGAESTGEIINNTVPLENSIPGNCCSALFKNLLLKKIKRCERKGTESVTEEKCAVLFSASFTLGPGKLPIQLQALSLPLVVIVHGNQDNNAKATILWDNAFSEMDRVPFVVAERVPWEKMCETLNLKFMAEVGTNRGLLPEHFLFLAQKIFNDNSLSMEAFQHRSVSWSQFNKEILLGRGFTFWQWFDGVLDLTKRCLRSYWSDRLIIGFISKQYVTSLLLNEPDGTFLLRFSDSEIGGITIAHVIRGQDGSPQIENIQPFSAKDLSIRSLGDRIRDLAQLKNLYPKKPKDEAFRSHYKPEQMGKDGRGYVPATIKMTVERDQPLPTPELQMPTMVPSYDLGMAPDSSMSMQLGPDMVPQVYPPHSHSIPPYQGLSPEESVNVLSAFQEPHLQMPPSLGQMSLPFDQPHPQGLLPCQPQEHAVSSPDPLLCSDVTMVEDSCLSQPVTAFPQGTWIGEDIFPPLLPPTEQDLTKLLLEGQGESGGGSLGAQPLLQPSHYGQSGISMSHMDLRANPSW
Summary of the method: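 Human PBMC were recovered overnight, treated 3 h with compound, then stimulated for 10 min with 10 ng/mL IL-6 (pSTAT3) or 1 ng/mL IL-4 (pSTAT6). Lysates were read by MSD sandwich immunoassay, with total STAT capture and pY705-STAT3 or pY641-STAT6 detection. Signal minus unstimulated wells was normalized to DMSO, and IC50 came from a variable-slope fit.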

[3] = molecular target: T3, STAT3 (Homo sapiens, UniProt P40763); test: STAT3 Fluorescence Polarization (FP) Assay; assay type: binding; conditions: recombinant STAT3 25 nM; probe 5-FAM-GpYLPQTV-NH2 2 nM; 45 min, room temperature; read-out: STAT3 FP IC50
T3 construct: Recombinant STAT3 protein (STAT3(G127-1722))
T3 sequence (P40763 127-722 limits assumed): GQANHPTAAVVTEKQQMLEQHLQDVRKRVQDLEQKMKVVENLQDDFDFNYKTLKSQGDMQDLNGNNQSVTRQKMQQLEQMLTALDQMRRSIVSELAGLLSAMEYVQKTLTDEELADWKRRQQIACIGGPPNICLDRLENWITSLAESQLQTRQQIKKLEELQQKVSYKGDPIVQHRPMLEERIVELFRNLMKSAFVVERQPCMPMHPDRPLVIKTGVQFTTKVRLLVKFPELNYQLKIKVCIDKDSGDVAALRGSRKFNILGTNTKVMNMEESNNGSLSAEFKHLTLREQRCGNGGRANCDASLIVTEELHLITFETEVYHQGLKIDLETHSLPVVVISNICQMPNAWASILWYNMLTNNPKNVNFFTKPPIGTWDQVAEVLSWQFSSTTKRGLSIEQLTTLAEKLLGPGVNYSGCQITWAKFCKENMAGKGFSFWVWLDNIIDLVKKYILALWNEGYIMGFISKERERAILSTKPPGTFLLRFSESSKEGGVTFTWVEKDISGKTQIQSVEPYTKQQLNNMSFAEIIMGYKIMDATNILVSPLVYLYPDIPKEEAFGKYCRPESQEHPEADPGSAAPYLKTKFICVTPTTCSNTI

[4] = molecular target: T4, STAT6 (Homo sapiens, UniProt P42226); test: STAT6 Fluorescence Polarization (FP) Assay; assay type: binding; conditions: recombinant STAT6(W123-T658) 250 nM; probe 5-FAM-Ap[…]-NH2 2 nM; 45 min, room temperature; read-out: STAT6 FP IC50
T4 construct: Recombinant STAT6 protein (STAT6(W123-T658))
T4 sequence (P42226 123-658): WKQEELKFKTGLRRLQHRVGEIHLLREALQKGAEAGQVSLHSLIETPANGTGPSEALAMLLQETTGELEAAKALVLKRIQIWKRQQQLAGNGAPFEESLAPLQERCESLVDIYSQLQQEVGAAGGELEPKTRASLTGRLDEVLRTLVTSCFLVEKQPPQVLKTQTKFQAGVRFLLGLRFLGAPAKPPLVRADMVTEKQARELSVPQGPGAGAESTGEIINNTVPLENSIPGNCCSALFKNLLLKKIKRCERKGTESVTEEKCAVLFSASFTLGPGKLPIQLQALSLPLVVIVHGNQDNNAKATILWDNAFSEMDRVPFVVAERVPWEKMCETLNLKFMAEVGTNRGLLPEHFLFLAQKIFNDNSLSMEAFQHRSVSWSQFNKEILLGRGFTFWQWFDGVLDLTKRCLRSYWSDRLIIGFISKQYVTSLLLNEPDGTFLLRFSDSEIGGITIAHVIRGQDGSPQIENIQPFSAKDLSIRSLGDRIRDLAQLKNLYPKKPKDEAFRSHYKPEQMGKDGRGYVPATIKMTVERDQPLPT
Protocol: STAT6 Fluorescence Polarization (FP) Assay
An FP assay was developed to determine IC50 values for test substances. Recombinant STAT6 protein (STAT6(W123-T658)) at 250 nM was combined with a fluorescently labeled, phosphotyrosine peptide probe (5-FAM-Ap[…]-NH2) at 2 nM in FP buffer (10 mM HEPES pH 7.4, 50 mM NaCl, 1 mM EDTA, 0.05% Tween 20, 2 mM DTT), 50 μL of STAT6-probe mixture was added to serial diluted compounds in black, 96-well plates (Greiner BioOne 655076) to a final concentration of 1% DMSO. Reaction components were mixed, and FP was measured after 45-minute incubation at room temperature using a Tecan Spark multimode plate reader. FP signal (mP) was plotted against the log concentration of the test substances and IC50 values were calculated by nonlinear regression analysis using GraphPad Prism software. For STAT6 FP assay. A=≤300 nM; B=>300-3000 nM; C=>3-30 μM; and D=>30 μM.

[5] = read-out: pSTAT6 IC50, compound 3 hrs, then 1 ng/mL IL-4 for 10 min, pY641-STAT6
[6] = compound 3 hrs, then 1 ng/mL IL-4 for 10 min, pY641-STAT6, read-out: pSTAT6 IC50

SMILES | IC50 [1] | IC50 [2, 5] | IC50 [3] | IC50 [4] | IC50 [2, 6]
CN(C(=O)[C@@H]1CC[C@@H]2CCN(C(=O)CCCCCC#Cc3cccc4c3CN(C3CCC(=O)NC3=O)C4=O)C[C@H](NC(=O)c3cc4cc(C(F)(F)P(=O)(OCOC(=O)C(C)(C)C)OCOC(=O)C(C)(C)C)ccc4[nH]3)C(=O)N21)c1ccccc1 (stereo partly drawn) [Compound 2, ((((2-(((5S,8S,10aR)-3-(8-(2-(2,6-Dioxopiperidin-3-yl)-1-oxoisoindolin-4-yl)oct-7-ynoyl)-8-(methyl(phenyl)carbamoyl)-6-oxodecahydropyrrolo[1,2-a][1,5]diazocin-5-yl)carbamoyl)-1H-indol-5-yl)difluoromethyl)phosphoryl)bis(oxy))bis(methylene) bis(2,2-dimethylpropanoate)] | 1 to 3 µM | 1 to 3 µM |  |  | 
CC(=O)N1CC[C@H]2CC[C@@H](C(=O)Nc3ccc(-c4ccc(NC(=O)CCCCCC#Cc5cccc6c5CN(C5CCC(=O)NC5=O)C6=O)cc4)cc3)N2C(=O)[C@@H](NC(=O)c2cc3cc(C(F)(F)P(=O)(OCOC(=O)C(C)(C)C)OCOC(=O)C(C)(C)C)ccc3[nH]2)C1 (stereo partly drawn) [Compound 4, ((((2-(((5S,8S,10aR)-3-acetyl-8-((4′-(8-(2-(2,6-dioxopiperidin-3-yl)-1-oxoisoindolin-4-yl)oct-7-ynamido)-[1,1′-biphenyl]-4-yl)carbamoyl)-6-oxodecahydropyrrolo[1,2-a][1,5]diazocin-5-yl)carbamoyl)-1H-indol-5-yl)difluoromethyl)phosphoryl)bis(oxy))bis(methylene) bis(2,2-dimethylpropanoate)] | 1 to 3 µM | > 3 µM |  |  | 
Cc1ccc2onc(C(=O)N3CC[C@H]4CC[C@@H](C(=O)N5CCN(c6cccc7c6[nH]c(=O)n7C6CCC(=O)NC6=O)CC5)N4C(=O)[C@@H](NC(=O)c4ccc5ccc(C(F)(F)P(=O)(O)O)cc5c4)C3)c2c1 (stereo partly drawn) [Compound 36, ((7-(((5S,8S,10aR)-8-(4-(1-(2,6-dioxopiperidin-3-yl)-2-oxo-2,3-dihydro-1H-benzo[d]imidazol-4-yl)piperazine-1-carbonyl)-3-(5-methylbenzo[d]isoxazole-3-carbonyl)-6-oxodecahydropyrrolo[1,2-a][1,5]diazocin-5-yl)carbamoyl)naphthalen-2-yl)difluoromethyl)phosphonic acid] |  |  | 1 to 10 µM | < 0.3 µM | > 3 µM
Cc1ccc2onc(C(=O)N3CC[C@H]4CC[C@@H](C(=O)N5CCN(c6ccc7[nH]c(=O)n(C8CCC(=O)NC8=O)c7c6)CC5)N4C(=O)[C@@H](NC(=O)c4ccc5ccc(C(F)(F)P(=O)(O)O)cc5c4)C3)c2c1 (stereo partly drawn) [Compound 37, ((7-(((5S,8S,10aR)-8-(4-(3-(2,6-dioxopiperidin-3-yl)-2-oxo-2,3-dihydro-1H-benzo[d]imidazol-5-yl)piperazine-1-carbonyl)-3-(5-methylbenzo[d]isoxazole-3-carbonyl)-6-oxodecahydropyrrolo[1,2-a][1,5]diazocin-5-yl)carbamoyl)naphthalen-2-yl)difluoromethyl)phosphonic acid] |  |  | > 10 µM | < 0.3 µM | > 3 µM
CCCC(=O)SCCOP(=O)(OCCSC(=O)CCC)C(F)(F)c1ccc2sc(C(=O)N[C@H]3CN(C(=O)CCCCCC#Cc4cccc5c4CN(C4CCC(=O)NC4=O)C5=O)CC[C@H]4CC[C@@H](C(=O)N5CC(c6cnccc6N(C)C)C5)N4C3=O)cc2c1 (stereo partly drawn) [Compound 38, S,S′-(((((2-(((5S,8S,10aR)-8-(3-(4-(dimethylamino)pyridin-3-yl)azetidine-1-carbonyl)-3-(8-(2-(2,6-dioxopiperidin-3-yl)-1-oxoisoindolin-4-yl)oct-7-ynoyl)-6-oxodecahydropyrrolo[1,2-a][1,5]diazocin-5-yl)carbamoyl)benzo[b]thiophen-5-yl)difluoromethyl)phosphoryl)bis(oxy))bis(ethane-2,1-diyl)) dibutanethioate] | < 0.1 µM |  |  |  | 
Cc1ccc2onc(C(=O)N3CC[C@H]4CC[C@@H](C(=O)N(C)CCCCCCC#Cc5cccc6c5CN(C5CCC(=O)NC5=O)C6=O)N4C(=O)[C@@H](NC(=O)c4ccc5ccc(C(F)P(=O)(O)O)cc5c4)C3)c2c1 (stereo partly drawn) [Compound 40, ((7-(((5S,8S,10aR)-8-((8-(2-(2,6-dioxopiperidin-3-yl)-1-oxoisoindolin-4-yl)oct-7-yn-1-yl)(methyl)carbamoyl)-3-(5-methylbenzo[d]isoxazole-3-carbonyl)-6-oxodecahydropyrrolo[1,2-a][1,5]diazocin-5-yl)carbamoyl)naphthalen-2-yl)fluoromethyl)phosphonic acid] |  |  | > 10 µM | < 0.3 µM | > 3 µM
